#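 Protocol summary: plate cells (96-well), add compound at 5 concentrations, incubate 48 h, interpolate endpoints linearly. At the GI50, growth is halved. TGI: total growth inhibition.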
# Tests used:
# Assay in all cases: growth of human tumour cells (NCI), 48 h
# SNB-19 CNS = system: SNB-19 CNS
# PC-3 prostate = system: PC-3 prostate
# SF-539 CNS = system: SF-539 CNS
# SK-MEL-2 melanoma = system: SK-MEL-2 melanoma
# NCI/ADR-RES ovarian = system: NCI/ADR-RES ovarian
# SK-OV-3 ovarian = system: SK-OV-3 ovarian
# ACHN renal = system: ACHN renal
# NCI-H226 lung = system: NCI-H226 lung
# MDA-MB-435 = system: MDA-MB-435
# HCC-2998 colon = system: HCC-2998 colon
# TK-10 renal = system: TK-10 renal
# COLO 205 colon = system: COLO 205 colon
# IGROV1 ovarian = system: IGROV1 ovarian
# A549 NSCLC = system: A549 NSCLC
# OVCAR-4 ovarian = system: OVCAR-4 ovarian
# UO-31 renal = system: UO-31 renal
# RPMI-8226 leukemia = system: RPMI-8226 leukemia
# OVCAR-5 ovarian = system: OVCAR-5 ovarian
# SR leukemia = system: SR leukemia
# HOP-62 NSCLC = system: HOP-62 NSCLC
# RXF 393 renal = system: RXF 393 renal
# MOLT-4 leukemia = system: MOLT-4 leukemia
# SW-620 colon = system: SW-620 colon
# HOP-92 NSCLC = system: HOP-92 NSCLC
# SF-268 CNS = system: SF-268 CNS
# MALME-3M melanoma = system: MALME-3M melanoma
# CAKI-1 renal = system: CAKI-1 renal
# OVCAR-3 ovarian = system: OVCAR-3 ovarian
# HL-60(TB) leukemia = system: HL-60(TB) leukemia
# CCRF-CEM leukemia = system: CCRF-CEM leukemia
# K-562 leukemia = system: K-562 leukemia
# SK-MEL-28 melanoma = system: SK-MEL-28 melanoma
# EKVX NSCLC = system: EKVX NSCLC
# KM12 colon = system: KM12 colon
# MDA-MB-231 breast = system: MDA-MB-231 breast
# UACC-62 melanoma = system: UACC-62 melanoma
# U251 CNS = system: U251 CNS
# HT29 colon = system: HT29 colon
# UACC-257 melanoma = system: UACC-257 melanoma
# SK-MEL-5 melanoma = system: SK-MEL-5 melanoma
# OVCAR-8 ovarian = system: OVCAR-8 ovarian
# HCT-116 colon = system: HCT-116 colon
# SF-295 CNS = system: SF-295 CNS
# SNB-75 CNS = system: SNB-75 CNS
# T-47D breast = system: T-47D breast
# BT-549 breast = system: BT-549 breast
# NCI-H23 lung = system: NCI-H23 lung
# 786-0 renal = system: 786-0 renal
# MCF7 breast = system: MCF7 breast
# M14 melanoma = system: M14 melanoma
# HS 578T breast = system: HS 578T breast
# DU-145 prostate = system: DU-145 prostate
# A498 renal = system: A498 renal
# LOX IMVI melanoma = system: LOX IMVI melanoma
# HCT-15 colon = system: HCT-15 colon
# SN12C renal = system: SN12C renal
# NCI-H460 lung = system: NCI-H460 lung
# NCI-H522 lung = system: NCI-H522 lung
smiles,measurement,setting,value
CN1CCN(Cc2ccc(NC(=O)c3cncc(C#Cc4cnc5ccc(Cl)nn45)c3)cc2C(F)(F)F)CC1,GI50,SNB-19 CNS,1780 nM
same,TGI,SNB-19 CNS,4890 nM
same,GI50,PC-3 prostate,1200 nM
same,TGI,PC-3 prostate,5240 nM
same,GI50,SF-539 CNS,540 nM
same,TGI,SF-539 CNS,1210 nM
same,GI50,SK-MEL-2 melanoma,744 nM
same,TGI,SK-MEL-2 melanoma,1980 nM
same,GI50,NCI/ADR-RES ovarian,1590 nM
same,TGI,NCI/ADR-RES ovarian,5240 nM
same,GI50,SK-OV-3 ovarian,1750 nM
same,TGI,SK-OV-3 ovarian,4960 nM
same,GI50,ACHN renal,769 nM
same,TGI,ACHN renal,2940 nM
same,GI50,NCI-H226 lung,507 nM
same,TGI,NCI-H226 lung,2700 nM
same,GI50,MDA-MB-435,736 nM
same,TGI,MDA-MB-435,2090 nM
same,GI50,HCC-2998 colon,949 nM
same,TGI,HCC-2998 colon,2660 nM
same,GI50,TK-10 renal,1640 nM
same,TGI,TK-10 renal,4460 nM
same,GI50,COLO 205 colon,688 nM
same,TGI,COLO 205 colon,2080 nM
same,GI50,IGROV1 ovarian,889 nM
same,TGI,IGROV1 ovarian,3540 nM
same,GI50,A549 NSCLC,1280 nM
same,TGI,A549 NSCLC,4290 nM
same,GI50,OVCAR-4 ovarian,453 nM
same,TGI,OVCAR-4 ovarian,3660 nM
same,GI50,UO-31 renal,1280 nM
same,TGI,UO-31 renal,3360 nM
same,GI50,RPMI-8226 leukemia,954 nM
same,TGI,RPMI-8226 leukemia,2690 nM
same,GI50,OVCAR-5 ovarian,830 nM
same,TGI,OVCAR-5 ovarian,3550 nM
same,GI50,SR leukemia,975 nM
same,TGI,SR leukemia,6100 nM
same,GI50,HOP-62 NSCLC,1270 nM
same,TGI,HOP-62 NSCLC,3730 nM
same,GI50,RXF 393 renal,828 nM
same,TGI,RXF 393 renal,1770 nM
same,GI50,MOLT-4 leukemia,682 nM
same,TGI,MOLT-4 leukemia,3890 nM
same,GI50,SW-620 colon,631 nM
same,TGI,SW-620 colon,3660 nM
same,GI50,HOP-92 NSCLC,454 nM
same,TGI,HOP-92 NSCLC,3630 nM
same,GI50,SF-268 CNS,1250 nM
same,TGI,SF-268 CNS,2830 nM
same,GI50,MALME-3M melanoma,495 nM
same,TGI,MALME-3M melanoma,1230 nM
same,GI50,CAKI-1 renal,1000 nM
same,TGI,CAKI-1 renal,4630 nM
same,GI50,OVCAR-3 ovarian,1580 nM
same,TGI,OVCAR-3 ovarian,4000 nM
same,GI50,HL-60(TB) leukemia,318 nM
same,TGI,HL-60(TB) leukemia,1470 nM
same,GI50,CCRF-CEM leukemia,1290 nM
same,TGI,CCRF-CEM leukemia,4840 nM
same,GI50,K-562 leukemia,5 nM
same,TGI,K-562 leukemia,2960 nM
same,GI50,SK-MEL-28 melanoma,918 nM
same,TGI,SK-MEL-28 melanoma,2590 nM
same,GI50,EKVX NSCLC,910 nM
same,TGI,EKVX NSCLC,2340 nM
same,GI50,KM12 colon,5 nM
same,TGI,KM12 colon,2130 nM
same,GI50,MDA-MB-231 breast,567 nM
same,TGI,MDA-MB-231 breast,2300 nM
same,GI50,UACC-62 melanoma,925 nM
same,TGI,UACC-62 melanoma,2400 nM
same,GI50,U251 CNS,1220 nM
same,TGI,U251 CNS,4340 nM
same,GI50,HT29 colon,747 nM
same,TGI,HT29 colon,5710 nM
same,GI50,UACC-257 melanoma,1210 nM
same,TGI,UACC-257 melanoma,4130 nM
same,GI50,SK-MEL-5 melanoma,849 nM
same,TGI,SK-MEL-5 melanoma,1590 nM
same,GI50,OVCAR-8 ovarian,1460 nM
same,TGI,OVCAR-8 ovarian,5270 nM
same,GI50,HCT-116 colon,259 nM
same,TGI,HCT-116 colon,1340 nM
same,GI50,SF-295 CNS,1380 nM
same,TGI,SF-295 CNS,5320 nM
same,GI50,SNB-75 CNS,972 nM
same,TGI,SNB-75 CNS,2100 nM
same,GI50,T-47D breast,1410 nM
same,TGI,T-47D breast,6580 nM
same,GI50,BT-549 breast,1450 nM
same,TGI,BT-549 breast,3850 nM
same,GI50,NCI-H23 lung,751 nM
same,TGI,NCI-H23 lung,2180 nM
same,GI50,786-0 renal,1010 nM
same,TGI,786-0 renal,1850 nM
same,GI50,MCF7 breast,287 nM
same,TGI,MCF7 breast,1920 nM
same,GI50,M14 melanoma,590 nM
same,TGI,M14 melanoma,1340 nM
same,GI50,HS 578T breast,886 nM
same,TGI,HS 578T breast,3290 nM
same,GI50,DU-145 prostate,1180 nM
same,TGI,DU-145 prostate,4380 nM
same,GI50,A498 renal,1120 nM
same,TGI,A498 renal,2600 nM
same,GI50,LOX IMVI melanoma,757 nM
same,TGI,LOX IMVI melanoma,1600 nM
same,GI50,HCT-15 colon,901 nM
same,TGI,HCT-15 colon,3360 nM
same,GI50,SN12C renal,969 nM
same,TGI,SN12C renal,3480 nM
same,GI50,NCI-H460 lung,871 nM
same,TGI,NCI-H460 lung,2060 nM
same,GI50,NCI-H522 lung,878 nM
same,TGI,NCI-H522 lung,2780 nM

# From PubChem BioAssay (NCI)
